Source: the NIST ThermoML archive (doi:10.1016/j.fluid.2005.07.017)

Experiment: xn = mol fraction of the nth substance listed
Conditions: Liquid, Vibrating tube method

c1ccsc1 [thiophene] + O=C=O
Conditions | mass density [kg/m3]
322.95 K, 19000 kPa, x2 = 0.199 | 1032.53
322.96 K, 8142 kPa, x2 = 0.5661 | 964.89
322.96 K, 9024 kPa, x2 = 0.5661 | 967.04
322.96 K, 10004 kPa, x2 = 0.5661 | 969.41
322.96 K, 11043 kPa, x2 = 0.5661 | 971.85
322.96 K, 12049 kPa, x2 = 0.5661 | 974.11
322.96 K, 13009 kPa, x2 = 0.5661 | 976.27
322.96 K, 14014 kPa, x2 = 0.5661 | 978.41
322.96 K, 15031 kPa, x2 = 0.5661 | 980.61
322.96 K, 16040 kPa, x2 = 0.5661 | 982.75
322.96 K, 17014 kPa, x2 = 0.5661 | 984.76
322.96 K, 18012 kPa, x2 = 0.5661 | 986.77
322.96 K, 19036 kPa, x2 = 0.5661 | 988.76
323.01 K, 1047 kPa, x2 = 0 | 1028.97
323.01 K, 2059 kPa, x2 = 0 | 1029.98
323.01 K, 3070 kPa, x2 = 0 | 1031.02
323.01 K, 4047 kPa, x2 = 0 | 1031.99
323.01 K, 5002 kPa, x2 = 0 | 1032.9
323.01 K, 6005 kPa, x2 = 0 | 1033.9
323.01 K, 7068 kPa, x2 = 0 | 1034.92
323.01 K, 8021 kPa, x2 = 0 | 1035.81
323.01 K, 9013 kPa, x2 = 0 | 1036.76
323.01 K, 10005 kPa, x2 = 0 | 1037.67
323.01 K, 10991 kPa, x2 = 0 | 1038.62
323.01 K, 12034 kPa, x2 = 0 | 1039.58
323.01 K, 12977 kPa, x2 = 0 | 1040.44
323.01 K, 13999 kPa, x2 = 0 | 1041.38
323.01 K, 14991 kPa, x2 = 0 | 1042.26
323.01 K, 15995 kPa, x2 = 0 | 1043.17
323.01 K, 16998 kPa, x2 = 0 | 1044.03
323.01 K, 17983 kPa, x2 = 0 | 1044.93
323.01 K, 18951 kPa, x2 = 0 | 1045.78
323.06 K, 10088 kPa, x2 = 0.9217 | 726.5
323.06 K, 11019 kPa, x2 = 0.9217 | 748.28
323.06 K, 12026 kPa, x2 = 0.9217 | 766.89
323.06 K, 13007 kPa, x2 = 0.9217 | 781.83
323.06 K, 14004 kPa, x2 = 0.9217 | 794.96
323.06 K, 15030 kPa, x2 = 0.9217 | 806.9
323.06 K, 16054 kPa, x2 = 0.9217 | 817.45
323.06 K, 17033 kPa, x2 = 0.9217 | 826.57
323.06 K, 18006 kPa, x2 = 0.9217 | 835.18
323.06 K, 19038 kPa, x2 = 0.9217 | 843.46
323.06 K, 20051 kPa, x2 = 0.9217 | 850.95
323.06 K, 21005 kPa, x2 = 0.9217 | 857.68
323.06 K, 22019 kPa, x2 = 0.9217 | 864.36
323.06 K, 23033 kPa, x2 = 0.9217 | 870.67
323.06 K, 24027 kPa, x2 = 0.9217 | 876.59
323.06 K, 24980 kPa, x2 = 0.9217 | 882.14
323.08 K, 6997 kPa, x2 = 0.3818 | 994.07
323.08 K, 8053 kPa, x2 = 0.3818 | 995.85
323.08 K, 9009 kPa, x2 = 0.3818 | 997.45
323.08 K, 10081 kPa, x2 = 0.3818 | 999.25
323.08 K, 11041 kPa, x2 = 0.3818 | 1000.81
323.08 K, 12024 kPa, x2 = 0.3818 | 1002.4
323.08 K, 12998 kPa, x2 = 0.3818 | 1003.93
323.08 K, 14011 kPa, x2 = 0.3818 | 1005.51
323.08 K, 15018 kPa, x2 = 0.3818 | 1007.08
323.08 K, 15936 kPa, x2 = 0.3818 | 1008.44
323.08 K, 17059 kPa, x2 = 0.3818 | 1010.13
323.08 K, 17995 kPa, x2 = 0.3818 | 1011.52
323.08 K, 19010 kPa, x2 = 0.3818 | 1013.01
323.09 K, 8069 kPa, x2 = 0.6996 | 950.76
323.09 K, 9063 kPa, x2 = 0.6996 | 953.71
323.09 K, 10074 kPa, x2 = 0.6996 | 956.72
323.09 K, 11045 kPa, x2 = 0.6996 | 959.45
323.09 K, 11999 kPa, x2 = 0.6996 | 962.01
323.09 K, 13038 kPa, x2 = 0.6996 | 964.85
323.09 K, 14005 kPa, x2 = 0.6996 | 967.35
323.09 K, 14998 kPa, x2 = 0.6996 | 969.82
323.09 K, 16004 kPa, x2 = 0.6996 | 972.38
323.09 K, 17044 kPa, x2 = 0.6996 | 974.92
323.09 K, 17927 kPa, x2 = 0.6996 | 976.97
323.15 K, 101 kPa, x2 = 0 | 1026.98
332.79 K, 7987 kPa, x2 = 0.5661 | 943.05
332.79 K, 9035 kPa, x2 = 0.5661 | 945.99
332.79 K, 10035 kPa, x2 = 0.5661 | 948.77
332.79 K, 11015 kPa, x2 = 0.5661 | 951.37
332.79 K, 12021 kPa, x2 = 0.5661 | 953.97
332.79 K, 13022 kPa, x2 = 0.5661 | 956.49
332.79 K, 14010 kPa, x2 = 0.5661 | 958.85
332.79 K, 15020 kPa, x2 = 0.5661 | 961.27
332.79 K, 16037 kPa, x2 = 0.5661 | 963.66
332.79 K, 17014 kPa, x2 = 0.5661 | 965.85
332.79 K, 18001 kPa, x2 = 0.5661 | 968.08
332.79 K, 19018 kPa, x2 = 0.5661 | 970.3
332.85 K, 1015 kPa, x2 = 0 | 1016.93
332.85 K, 2035 kPa, x2 = 0 | 1018
332.85 K, 3004 kPa, x2 = 0 | 1019.06
332.85 K, 3964 kPa, x2 = 0 | 1020.05
332.85 K, 4991 kPa, x2 = 0 | 1021.14
332.85 K, 5081 kPa, x2 = 0.199 | 1002.75
332.85 K, 6001 kPa, x2 = 0 | 1022.17
332.85 K, 6051 kPa, x2 = 0.199 | 1004.04
332.85 K, 7014 kPa, x2 = 0 | 1023.21
332.85 K, 7075 kPa, x2 = 0.199 | 1005.38
332.85 K, 7998 kPa, x2 = 0 | 1024.2
332.85 K, 8033 kPa, x2 = 0.199 | 1006.63
332.85 K, 9006 kPa, x2 = 0.199 | 1007.88
332.85 K, 9009 kPa, x2 = 0 | 1025.23
332.85 K, 9995 kPa, x2 = 0 | 1026.19
332.85 K, 10006 kPa, x2 = 0.199 | 1009.13
332.85 K, 10989 kPa, x2 = 0 | 1027.18
332.85 K, 11013 kPa, x2 = 0.199 | 1010.42
332.85 K, 12006 kPa, x2 = 0 | 1028.17
332.85 K, 12053 kPa, x2 = 0.199 | 1011.71
332.85 K, 13009 kPa, x2 = 0 | 1029.18
